Entries after “also recorded” stand apart in the source; their conditions may differ. Where two headings read alike, the source gives them in different places.
Tests used:
Type in all cases: physicochemical
[1] = Dynamic vapor sorption (DVS); settings: for crystalline form of post-DVS sample by XRPD: after sorption/desorption; for water vapor uptake / weight gain by DVS: from 5% to 95% RH
Procedure: Dynamic Vapor Sorption (DVS)
a. VTI: Automated vapor sorption (VS) data were collected on a VTI SGA-100 Vapor Sorption Analyzer. NaCl and PVP were used as calibration standards. Samples were dried prior to analysis. Sorption and desorption data were collected over a range from 5% to 95% RH at 10% RH increments under a nitrogen purge. The equilibrium criterion used for analysis was less than 0.0100% weight change in 5 minutes with a maximum equilibration time of 3 hours. Data were not corrected for the initial moisture content of the samples.
b. Intrinsic: Automated vapor sorption (VS) data were collected on a Surface Measurement System DVS Intrinsic instrument. Samples were not dried prior to analysis. Sorption and desorption data were collected over a range from 5% to 95% RH at 10% RH increments under a nitrogen purge. The equilibrium criterion used for analysis was less than 0.0100% weight change in 5 minutes with a maximum equilibration time of 3 hours. Data were not corrected for the initial moisture content of the samples.

[2] = pKa and log P determination (Pion Inc./Sirius Analytical Instruments Ltd.)
Procedure: pKa and log P Determination: pKa and log P determination were performed by Pion Inc./Sirius Analytical Instruments Ltd. in East Sussex, United Kingdom.

[3] = Stability testing in open vials, 75% RH chamber at 40° C., analysed by PLM and XRPD; settings: 15 days / approximately 2 weeks, XRPD
Procedure: (§1) The physical stability of Hemifumarate Form B was investigated. Compound 1 Hemifumarate Form B was slurried in water at ambient conditions for approximately 24 hours. In a separate experiment, the material was repeatedly washed with acetone.
Stability Testing: Various Compound 1 salts were placed in open vials within a 75% RH chamber (saturated sodium chloride solution). The RH chamber was placed in a 40° C. oven for 15-16 days. Samples were analyzed by PLM and XRPD upon the end of the duration.

[4] = Disproportionation check: water slurry at ambient conditions and repeated acetone wash, XRPD of recovered material
Procedure: as §1
Solids were then collected by vacuum filtration and analyzed by XRPD.

| SMILES | hygroscopicity by DVS (class) ([1]; 5% to 95% RH) | crystalline form of post-DVS sample by XRPD [1] | water vapor uptake / weight gain by DVS [1] | pKa [2] | logP ([2]; read-out: cationic log P) | logP ([2]; read-out: neutral log P) | hygroscopicity by DVS ([1]; DVS isotherm) | weight gain/loss through the DVS sorption/desorption experiment ([1]; sorption/desorption 5% to 95% RH, without hysteresis) | physical stability at 40° C. and 75% RH [3] | disproportionation of the salt in acetone ([4]; repeatedly washed with acetone) | disproportionation of the salt in water ([4]; slurried in water at ambient conditions for approximately 24 hours) |
| --- | --- | --- | --- | --- | --- | --- | --- | --- | --- | --- | --- |
| CNC(=O)c1cc2c(Oc3ccc(NC(=O)C4(C(=O)Nc5ccc(F)cc5)CC4)cc3)ccnc2cc1OC [Compound 1 Form A, 1-N′-(4-Fluorophenyl)-1-N-[4-[7-methoxy-6-(methylcarbamoyl)quinolin-4-yl]oxyphenyl]cyclopropane-1,1-dicarboxamide] | Limited | no change in crystalline form | ~0.91 wt % | 5.43 ± 0.4 | 1.79 ± 0.8 | 4.5 ± 0.5 |  |  |  |  |  |
| CNC(=O)c1cc2c(Oc3ccc(NC(=O)C4(C(=O)Nc5ccc(F)cc5)CC4)cc3)ccnc2cc1OC [Compound 1 Hemifumarate Form B] |  | remained unchanged | about 0.2 wt % |  |  |  | not hygroscopic | less than 0.2% | physically stable; also recorded: did not change by XRPD | disproportionation was not evident; also recorded: did not cause disproportionation | disproportionation was not evident; also recorded: did not cause disproportionation |

From patent US12017995B2, “Crystalline forms and salt forms of a kinase inhibitor” (Exelixis, Inc., priority 2018, dated 2024)
